From article PMC4180444 (Toxicology letters, 2014)
“And” between values parts separate entries of the source, which are not always exact repeats. Equal values may be shown once. “Also recorded” adds a separate entry of the source. Read-outs that look alike come from different tables or passages of the source.

Key:
human PPARγ = target: T1, human PPARγ (Homo sapiens, UniProt P37231); format: cell-based; settings: for PPARγ agonist activity (result in words): 24 hr exposure, vs vehicle control; for fold increase in PPARγ activity relative to vehicle control: 10-fold concentration intervals (Fig. 4)
T1 sequence (P37231 1-505): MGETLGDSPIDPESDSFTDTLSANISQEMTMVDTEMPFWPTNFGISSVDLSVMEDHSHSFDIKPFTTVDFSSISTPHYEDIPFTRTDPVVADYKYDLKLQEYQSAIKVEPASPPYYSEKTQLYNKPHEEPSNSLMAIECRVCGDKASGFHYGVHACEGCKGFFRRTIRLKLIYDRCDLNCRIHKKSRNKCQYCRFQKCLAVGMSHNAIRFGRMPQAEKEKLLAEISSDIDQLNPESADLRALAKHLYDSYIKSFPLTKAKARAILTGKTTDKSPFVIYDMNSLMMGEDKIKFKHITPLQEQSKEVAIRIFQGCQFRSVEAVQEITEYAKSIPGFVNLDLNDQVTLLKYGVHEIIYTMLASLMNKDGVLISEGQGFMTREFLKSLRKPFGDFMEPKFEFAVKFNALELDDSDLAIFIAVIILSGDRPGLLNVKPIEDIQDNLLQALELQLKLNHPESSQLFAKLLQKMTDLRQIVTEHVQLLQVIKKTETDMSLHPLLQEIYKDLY

D283 Med cells = test: MTS viability assay; format: cell-based, human; settings: 1 μM to 30 μM, 48 hour exposure (Fig. 6 legend)
CHO PPARγ reporter cells = format: cell-based, Chinese Hamster; settings: 0.1 μM to 100 μM; 24 hr
[1] = system: caspase 3 activity in D283 Med cells; test: caspase 3 activity assay in cell lysates; format: cell-based, human; settings: 6 hour exposure

## CCCCC(CC)COC(=O)c1cc(Br)c(Br)c(Br)c1Br (stereo not shown) [TBB, 2-ethylhexyl-2,3,4,5-tetrabromobenzoate]
Human PPARγ
  PPARγ agonist activity (result in words): No statistical differences; also recorded: No activity

## C=[CH][Sn]([CH2]CCC)([CH2]CCC)[CH2]CCC [TBVT, Tributyl(vinyl)tin, reference compound]
Human PPARγ
  Concentration of maximal PPARγ activity observed: 10 µM
Human PPARγ; 10 μM (10^-5 M)
  fold increase in PPARγ activity relative to vehicle control: 3 fold and 3.3 ± 0.3 fold

## O=P(Oc1ccccc1)(Oc1ccccc1)Oc1ccccc1 [TPP, triphenyl phosphate]
Human PPARγ
  Concentration of maximal PPARγ activity observed: 30 µM
  PPARγ agonist activity (result in words): Significant agonist activity
Human PPARγ; 10 μM (10^-5 M)
  fold increase in PPARγ activity relative to vehicle control: 6.23 ± 0.63 fold and 6.2 fold
Human PPARγ; 30 μM, focused analysis with half-log (3-fold) increments (Fig. 5)
  fold increase in PPARγ activity: 20 ± 2.2 fold
Human PPARγ; 100 μM
  fold increase in PPARγ activity relative to vehicle control: 2.84 ± 0.34 fold
Human PPARγ; TPP at 30 μM
  relative maximal PPARγ activity, percent of TPT Cl: 57% ± 6%
D283 Med cells
  effect on viability: decreased viability
CHO PPARγ reporter cells
  effect on cell viability: dose dependent decreases in cell viability
[1]
  concentration above which caspase activity significantly increased: above 1 μM
  effect on caspase 3 activity: significant dose dependent increases in caspase 3 activities

## [Cl][Sn]([c]1ccccc1)([c]1ccccc1)[c]1ccccc1 [TPT Cl, triphenyltin chloride, reference compound]
Human PPARγ
  Concentration of maximal PPARγ activity observed: 0.1 µM
Human PPARγ; non-monotonic concentration response
  concentration above which PPARγ activity decreased: > 0.1 µM
Human PPARγ; read-out: AC50, concentration eliciting half-maximal response, 4-parameter variable slope model
  AC50: 3 nM and 3.3 nM
